This is an account of results in patent US12110289B2, “Heterocyclic compounds, preparation methods and uses thereof” (InventisBio Co., Ltd., priority 2020, dated 2024).

The first experiment relates to Lung cancer cell line NCI-H358 containing KRas G12C mutation. Description: Assay for cell proliferation (Cell-titer Glo, 5 days). The experiment is classed as cell-based, human. The settings on record: Homo sapiens, NCI-H358, 120 h, NCI-H358, 5 days, Cell-titer Glo; read-out: IC50 (nM), Inhibition of NCI-H358 Cell Proliferation. How it is done:
One hundred fifty microliter (150 μL) of media containing 2000 cells per well were seeded into each well of a 96-well culture plate and left to attach overnight in a 37° C. incubator with 5% CO2. Diluted compounds of 0.75 μL for each well were added by liquid handler at a final concentration of 0.5% DMSO. Cells were treated for 5 days in the incubator. Cell-titer Glo (CTG) kit (Promega) was used to assess cell proliferation. Of note, 120 μL of CTG reagent was added to each well and incubated at RT for 10 minutes.
As to `C=CC(=O)N1C[C@H](C)N(c2nc(=O)n(-c3c(F)cc4c(ncn4C)c3C3CC3)c3nc(-c4c(N)cccc4F)c(F)cc23)C[C@H]1C` (atropisomer, axis not shown) [Compound 179], the IC50 worked out at 386 nM.

As to `C=CC(=O)N1CCN(c2nc(=O)n(-c3c(C)nc4c(ncn4C)c3C(C)C)c3nc(-c4c(O)cccc4F)c(F)cc23)[C@@H](C)C1` (single isomer, unassigned) [Compound 163], the IC50 came to 44.2 nM.

Turning to `C=CC(=O)N1C[C@H](C)N(c2nc(=O)n(-c3c(C(C)C)ncnc3C(C)C)c3nc(-c4c(N)cccc4F)c(F)cc23)C[C@H]1C` [4-((2S,5R)-4-acryloyl-2,5-dimethylpiperazin-1-yl)-7-(2-amino-6-fluorophenyl)-1-(4,6-diisopropylpyrimidin-5-yl)-6-fluoropyrido[2,3-d]pyrimidin-2(1H)-one], the IC50 was 5.3 nM.

The same experiment, now with this note: NCI-H358, 5 days, Cell-titer Glo; read-out: IC50 (nM), Inhibition of NCI-H358 Cell Proliferation.
Consider `C=CC(=O)N1CCN(c2nc(=O)n(-c3c(C)cc4c(ncn4C)c3C(C)C)c3nc(-c4c(N)cccc4F)c(Cl)cc23)[C@@H](C)C1` (atropisomer, axis not shown) [Compound 151], for which the IC50 was determined as 16.2 nM.

In the case of `C=CC(=O)N1CCN(c2nc(=O)n(-c3c(C)cc4c(ncn4C)c3C(C)C)c3nc(-c4ccccc4F)c(Cl)cc23)[C@@H](C)C1` (single isomer, unassigned) [Compound 141], the IC50 came to 38 nM.

For the compound `C=CC(=O)N1CCN(c2nc(=O)n(-c3c(C)cc4c(ncn4C)c3C(C)C)c3nc(-c4ccccc4F)c(Cl)cc23)[C@@H](C)C1` (single isomer, unassigned) [Compound 142], the IC50 was 2.2 nM.

Take `C=CC(=O)N1CCN(c2nc(=O)n(-c3c(F)cc4c(ncn4C)c3C(C)C)c3nc(-c4c(N)cccc4F)c(F)cc23)[C@@H](C)C1` (single isomer, unassigned) [Compound 143]: the IC50 came out at 1300 nM.

`C=CC(=O)N1CCN(c2nc(=O)n(-c3c(F)cc4c(ncn4C)c3C(C)C)c3nc(-c4c(N)cccc4F)c(F)cc23)[C@@H](C)C1` (single isomer, unassigned) [Compound 144]: the IC50 amounted to 2.5 nM.

As for `C=CC(=O)N1CCN(c2nc(=O)n(-c3c(C)cc4c(ncn4C)c3C(C)C)c3nc(-c4c(N)cccc4F)c(F)cc23)[C@@H](C)C1` (single isomer, unassigned) [Compound 147], the IC50 came to 2.7 nM.

Regarding `C=CC(=O)N1CCN(c2nc(=O)n(-c3c(C)cc4c(ncn4C)c3C(C)C)c3nc(-c4c(N)cccc4F)c(F)cc23)[C@@H](C)C1` (single isomer, unassigned) [Compound 148], the IC50 amounted to 78.6 nM.

With `C=CC(=O)N1C[C@H](C)N(c2nc(=O)n(-c3c(C)cc4c(ncn4C)c3C(C)C)c3nc(-c4c(O)cccc4F)c(Cl)cc23)C[C@H]1C` (single isomer, unassigned) [Compound 149], the IC50 stood at 12.8 nM.

As for `C=CC(=O)N1C[C@H](C)N(c2nc(=O)n(-c3c(C)cc4c(ncn4C)c3C(C)C)c3nc(-c4c(O)cccc4F)c(Cl)cc23)C[C@H]1C` (single isomer, unassigned) [Compound 150], the IC50 is 1.1 nM.

With `C=CC(=O)N1C[C@H](C)N(c2nc(=O)n(-c3c(C)cc4c(ncn4C)c3C(C)C)c3nc(-c4c(N)cccc4F)c(F)cc23)C[C@H]1C` (single isomer, unassigned) [Compound 153], the IC50 came out at 172 nM.

`C=CC(=O)N1C[C@H](C)N(c2nc(=O)n(-c3c(C)cc4c(ncn4C)c3C(C)C)c3nc(-c4c(N)cccc4F)c(F)cc23)C[C@H]1C` (single isomer, unassigned) [Compound 154]: the IC50 amounted to 1.4 nM.

For `C=CC(=O)N1CCN(c2nc(=O)n(-c3c(C)cc4c(ncn4C)c3C(C)C)c3nc(-c4c(O)cccc4F)c(F)cc23)[C@@H](C)C1` (single isomer, unassigned) [Compound 155], the IC50 came to 60 nM.

Take `C=CC(=O)N1CCN(c2nc(=O)n(-c3c(C)cc4c(ncn4C)c3C(C)C)c3nc(-c4c(O)cccc4F)c(F)cc23)[C@@H](C)C1` (single isomer, unassigned) [Compound 156]: the IC50 worked out at 6.9 nM.

As to `C=CC(=O)N1C[C@H](C)N(c2nc(=O)n(-c3c(C)cc4c(ncn4C)c3C(C)C)c3nc(-c4ccccc4F)c(Cl)cc23)C[C@H]1C` (single isomer, unassigned) [Compound 159], the IC50 turned out to be 64.2 nM.

Regarding `C=CC(=O)N1C[C@H](C)N(c2nc(=O)n(-c3c(C)cc4c(ncn4C)c3C(C)C)c3nc(-c4ccccc4F)c(Cl)cc23)C[C@H]1C` (single isomer, unassigned) [Compound 160], the IC50 was determined as 1.3 nM.

As to `C=CC(=O)N1C[C@H](C)N(c2nc(=O)n(-c3c(C)cc4c(ncn4C)c3C(C)C)c3nc(-c4c(N)cccc4F)c(Cl)cc23)C[C@H]1C` (single isomer, unassigned) [Compound 161], the IC50 turned out to be 32.4 nM.

For the compound `C=CC(=O)N1C[C@H](C)N(c2nc(=O)n(-c3c(C)cc4c(ncn4C)c3C(C)C)c3nc(-c4c(N)cccc4F)c(Cl)cc23)C[C@H]1C` (single isomer, unassigned) [Compound 162], the IC50 stood at 0.5 nM.

As for `C=CC(=O)N1C[C@H](C)N(c2nc(=O)n(-c3c(C)nc4c(ncn4C)c3C(C)C)c3nc(-c4c(N)cccc4F)c(F)cc23)C[C@H]1C` (single isomer, unassigned) [Compound 164], the IC50 was greater than 1000 nM.

`C=CC(=O)N1C[C@H](C)N(c2nc(=O)n(-c3c(C)nc4c(ncn4C)c3C(C)C)c3nc(-c4c(N)cccc4F)c(F)cc23)C[C@H]1C` (single isomer, unassigned) [Compound 165]: the IC50 was 157 nM.

As for `C=CC(=O)N1C[C@H](C)N(c2nc(=O)n(-c3c(C)nc4c(ncn4C)c3C(C)C)c3nc(-c4ccccc4F)c(Cl)cc23)C[C@H]1C` (single isomer, unassigned) [Compound 167], the IC50 stood at 0.8 nM.

`C=CC(=O)N1C[C@H](C)N(c2nc(=O)n(-c3c(C)nc4c(ncn4C)c3C(C)C)c3nc(-c4ccccc4F)c(Cl)cc23)C[C@H]1C` (single isomer, unassigned) [Compound 168]: the IC50 was determined as 20.3 nM.

As for `C=CC(=O)N1C[C@H](C)N(c2nc(=O)n(-c3c(F)cc4c(ncn4C)c3C(C)C)c3nc(-c4ccccc4F)c(Cl)cc23)C[C@H]1C` (single isomer, unassigned) [Compound 169], the IC50 came to 119 nM.

As for `C=CC(=O)N1C[C@H](C)N(c2nc(=O)n(-c3c(F)cc4c(ncn4C)c3C(C)C)c3nc(-c4ccccc4F)c(Cl)cc23)C[C@H]1C` (single isomer, unassigned) [Compound 170], the IC50 was determined as 1 nM.

Consider `C=CC(=O)N1C[C@H](C)N(c2nc(=O)n(-c3c(C)nc4c(ncn4C)c3C(C)C)c3nc(-c4c(O)cccc4F)c(Cl)cc23)C[C@H]1C` (single isomer, unassigned) [Compound 171], for which the IC50 was found to be 15.6 nM.

On to `C=CC(=O)N1C[C@H](C)N(c2nc(=O)n(-c3c(C)nc4c(ncn4C)c3C(C)C)c3nc(-c4c(O)cccc4F)c(Cl)cc23)C[C@H]1C` (single isomer, unassigned) [Compound 172], for which the IC50 was 1.2 nM.

Take `C=CC(=O)N1C[C@H](C)N(c2nc(=O)n(-c3c(F)cc4c(ncn4C)c3C(C)C)c3nc(-c4c(N)cccc4F)c(Cl)cc23)C[C@H]1C` (single isomer, unassigned) [Compound 173]: the IC50 was 23.5 nM.

As for `C=CC(=O)N1C[C@H](C)N(c2nc(=O)n(-c3c(F)cc4c(ncn4C)c3C(C)C)c3nc(-c4c(N)cccc4F)c(Cl)cc23)C[C@H]1C` (single isomer, unassigned) [Compound 174], the IC50 amounted to 0.2 nM.

On to `C=CC(=O)N1C[C@H](C)N(c2nc(=O)n(-c3c(C)nc4c(ncn4C)c3C(C)C)c3nc(-c4c(N)cccc4F)c(Cl)cc23)C[C@H]1C` (single isomer, unassigned) [Compound 175], for which the IC50 is 16.1 nM.

For the compound `C=CC(=O)N1C[C@H](C)N(c2nc(=O)n(-c3c(C)nc4c(ncn4C)c3C(C)C)c3nc(-c4c(N)cccc4F)c(Cl)cc23)C[C@H]1C` (single isomer, unassigned) [Compound 176], the IC50 is 0.5 nM.

In the case of `C=CC(=O)N1C[C@H](C)N(c2nc(=O)n(-c3c(F)cc4c(ncn4C)c3C3CC3)c3nc(-c4c(N)cccc4F)c(Cl)cc23)C[C@H]1C` (single isomer, unassigned) [Compound 177], the IC50 turned out to be 73.7 nM.

Turning to `C=CC(=O)N1C[C@H](C)N(c2nc(=O)n(-c3c(F)cc4c(ncn4C)c3C3CC3)c3nc(-c4c(N)cccc4F)c(Cl)cc23)C[C@H]1C` (single isomer, unassigned) [Compound 178], the IC50 amounted to 0.9 nM.

Regarding `C=CC(=O)N1C[C@H](C)N(c2nc(=O)n(-c3c(C(C)C)nc4c(ncn4C)c3C)c3nc(-c4ccccc4F)c(Cl)cc23)C[C@H]1C` (single isomer, unassigned) [Compound 182], the IC50 worked out at 1.7 nM.

For the compound `C=CC(=O)N1C[C@H](C)N(c2nc(=O)n(-c3c(C(C)C)nc4c(ncn4C)c3C)c3nc(-c4c(N)cccc4F)c(Cl)cc23)C[C@H]1C` (single isomer, unassigned) [Compound 183], the IC50 was 27.4 nM.

As to `C=CC(=O)N1C[C@H](C)N(c2nc(=O)n(-c3c(C(C)C)nc4c(ncn4C)c3C)c3nc(-c4c(N)cccc4F)c(Cl)cc23)C[C@H]1C` (single isomer, unassigned) [Compound 184], the IC50 worked out at 0.2 nM.

Consider `C=CC(=O)N1C[C@H](C)N(c2nc(=O)n(-c3c(C(C)C)nc4c(ncn4C)c3C)c3nc(-c4c(O)cccc4F)c(Cl)cc23)C[C@H]1C` (single isomer, unassigned) [Compound 185], for which the IC50 turned out to be 21.7 nM.

On to `C=CC(=O)N1C[C@H](C)N(c2nc(=O)n(-c3c(C(C)C)nc4c(ncn4C)c3C)c3nc(-c4c(O)cccc4F)c(Cl)cc23)C[C@H]1C` (single isomer, unassigned) [Compound 186], for which the IC50 turned out to be 0.9 nM.
